Measured values taken from patent US20230407243A1, “GENETIC PLATFORM TO INVESTIGATE THE FUNCTIONS OF BACTERIAL DRUG EFFLUX PUMPS” (priority 2022, published 2023).

Tests used:
Format in all cases: cell-based, Escherichia coli
[1] = tested on: EKO-35 araC::acrEF Pore; assay: MIC susceptibility profiling, porinated efflux platform; conditions: for Minimum inhibitory concentration, EKO-35 araC::acrEF Pore: Table 14A, porinated, technical duplicate; for Fold changes of MICs: EKO-35 araC::acrEF Pore compared to EKO-35-Pore
Method in brief: (§1)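 E. coli strains carrying a genomically integrated constitutive fhuA ΔC/Δ4L pore were grown 18 h in LB at 37 °C, then diluted 1/2000 in MHB II from OD600 ~1.0. Compounds were tested in duplicate, 2-fold serial titration, for 18 h at 37 °C with shaking. MIC came from OD600 with the pre-incubation background subtracted.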

[2] = tested on: EKO-35 araC::acrD Pore; assay: as above; conditions: for Fold changes of MICs: EKO-35 araC::acrD Pore compared to EKO-35-Pore; for Minimum inhibitory concentration, EKO-35 araC::acrD Pore: Table 14A, porinated, technical duplicate
Method in brief: as §1

[3] = tested on: EKO-35 araC::acrBD408A Pore; assay: as above; conditions: for Fold changes of MICs: EKO-35 araC::acrBD408A Pore compared to EKO-35-Pore; for Minimum inhibitory concentration: EKO-35 araC::acrBD408A Pore, technical duplicate
Method in brief: as §1

[4] = tested on: EKO-35 araC::emrKY Pore; assay: as above; conditions: for Fold changes of MICs: EKO-35 araC::emrKY Pore compared to EKO-35-Pore; for Minimum inhibitory concentration: EKO-35 araC::emrKY Pore, technical duplicate
Method in brief: as §1

[5] = tested on: EKO-35 araC::acrB Pore; assay: as above; conditions: for Fold changes of MICs: EKO-35 araC::acr-B Pore compared to EKO-35-Pore; for Minimum inhibitory concentration, EKO-35 araC::acrB Pore: Table 14A, porinated, technical duplicate
Method in brief: as §1

[6] = tested on: EKO-35 araC::mexCD Pore; assay: as above; conditions: for Fold changes of MICs: EKO-35 araC::mexCD Pore compared to EKO-35-Pore; for Minimum inhibitory concentration: EKO-35 araC::mexCD Pore, technical duplicate
Method in brief: as §1

[7] = tested on: EKO-35 araC::mdtBC Pore; assay: as above; conditions: for Fold changes of MICs: EKO-35 araC::mdtBC Pore compared to EKO-35-Pore; for Minimum inhibitory concentration: EKO-35 araC::mdtBC Pore, technical duplicate
Method in brief: as §1

[8] = tested on: EKO-35 araC::macAB Pore; assay: as above; conditions: for Fold changes of MICs: EKO-35 araC::macAB Pore compared to EKO-35-Pore; for Minimum inhibitory concentration: EKO-35 araC::macAB Pore, technical duplicate
Method in brief: as §1

[9] = tested on: EKO-35 araC::emrAB Pore; assay: as above; conditions: for Fold changes of MICs: EKO-35 araC::emrAB Pore compared to EKO-35-Pore; for Minimum inhibitory concentration: EKO-35 araC::emrAB Pore, technical duplicate
Method in brief: as §1

[10] = tested on: EKO-35 araC::mdtEF Pore; assay: as above; conditions: for Minimum inhibitory concentration, EKO-35 araC::mdtEF Pore: Table 14A, porinated, technical duplicate
Method in brief: as §1

[11] = tested on: wild-type (WT) K-12-Pore; assay: microbe, parasite or virus in culture; conditions: technical duplicate; for Minimum inhibitory concentration (MIC), Pore K-12: Table 10, with pore; for Minimum inhibitory concentration, K-12 (WT)-Pore: Table 14A, porinated
Method in brief: as §1

[12] = tested on: ΔtolC-Pore; assay: microbe, parasite or virus in culture; conditions: technical duplicate; for Minimum inhibitory concentration (MIC), Pore ΔtolC: Table 10, with pore; for Minimum inhibitory concentration, ΔtolC-Pore: Table 14A, porinated
Method in brief: as §1

[13] = tested on: EKO-35 araC::mdtBC; assay: MIC susceptibility profiling, efflux platform; conditions: for Fold change of MICs: EKO-35 araC::mdtBC compared to EKO-35; for Minimum Inhibitory Concentration, EKO-35 araC::mdtBC: Table 13B, non-porinated, technical duplicate
Method in brief: (§2)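 LB o/n 37 °C → PBS pH 7.4, OD600 ~1.0 → 1/2000 in MHB II; 2-fold cmpd series, duplicate, DMSO ctrl; 18 h 37 °C, 900 rpm; OD600 post minus pre.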

[14] = tested on: EKO-35 araC::mdtEF; assay: MIC susceptibility profiling, efflux platform; conditions: for Fold change of MICs: EKO-35 araC::mdtEF compared to EKO-35; for Minimum Inhibitory Concentration, EKO-35 araC::mdtEF: Table 13A, non-porinated, technical duplicate
Method in brief: as §2

[15] = tested on: E. coli EKO-35; assay: microbe, parasite or virus in culture; conditions: for Fold change of MICs: EKO-35 compared to EKO-35 (reference); for Minimum inhibitory concentration (MIC), EKO-35: Table 10, without pore; for Minimum inhibitory concentration (MIC), EKO-35 / Minimum Inhibitory Concentration, EKO-35: technical duplicate; for Minimum Inhibitory Concentration, EKO-35: Table 13A, non-porinated; for susceptibility of EKO-35 to the compound: synthetic efflux substrates of FIG. 12
Method in brief: as §2

[16] = tested on: E. coli ΔtolC; assay: microbe, parasite or virus in culture; conditions: technical duplicate; for Minimum inhibitory concentration (MIC), ΔtolC: Table 10, without pore; for Minimum Inhibitory Concentration, ΔtolC: Table 13A, non-porinated
Method in brief: as §2

[17] = tested on: wild-type E. coli K-12 str. BW25113; assay: microbe, parasite or virus in culture; conditions: technical duplicate; for Minimum inhibitory concentration (MIC), K-12: Table 10, without pore; for Minimum Inhibitory Concentration, K-12: Table 13A, non-porinated
Method in brief: as §2

[18] = tested on: EKO-35-Pore; assay: MIC susceptibility profiling, porinated strain; conditions: for Fold changes of MICs: EKO-35-Pore compared to EKO-35-Pore (reference); for Minimum inhibitory concentration (MIC), Pore EKO-35: Table 10, with pore; for Minimum inhibitory concentration (MIC), Pore EKO-35 / Minimum inhibitory concentration, EKO-35-Pore: technical duplicate; for Minimum inhibitory concentration, EKO-35-Pore: Table 14A, porinated
Method in brief: as §1

SMILES: CC(C)(C)c1cc(C(=O)NNC(=O)Nc2cccc3ccccc23)n(Cc2ccc(F)cc2)n1 [compound 4]
- Minimum inhibitory concentration, EKO-35 araC::acrEF Pore [1]: 320 µg/mL
- Fold changes of MICs [2]: 4 fold
- Minimum inhibitory concentration, EKO-35 araC::acrD Pore [2]: 10 µg/mL
- Fold changes of MICs [3]: 1 fold
- Minimum inhibitory concentration [3]: 2.5 µg/mL
- Fold changes of MICs [4]: 1 fold
- Minimum inhibitory concentration [4]: 1.25 µg/mL
- Fold changes of MICs [5]: 128 fold
- Minimum inhibitory concentration, EKO-35 araC::acrB Pore [5]: 320 µg/mL
- Fold changes of MICs [6]: 16 fold
- Minimum inhibitory concentration [6]: 40 µg/mL
- Fold changes of MICs [7]: 1 fold
- Minimum inhibitory concentration [7]: 2.5 µg/mL
- Fold changes of MICs [8]: 2 fold
- Minimum inhibitory concentration [8]: 5 µg/mL
- Fold changes of MICs [9]: 8 fold
- Minimum inhibitory concentration [9]: 20 µg/mL
- Minimum inhibitory concentration, EKO-35 araC::mdtEF Pore [10]: 320 µg/mL
- Minimum inhibitory concentration (MIC), Pore K-12 [11]: 320 µg/mL
- Minimum inhibitory concentration, K-12 (WT)-Pore [11]: 320 µg/mL
- Minimum inhibitory concentration (MIC), Pore ΔtolC [12]: 1.25 µg/mL
- Minimum inhibitory concentration, ΔtolC-Pore [12]: 1.25 µg/mL
- Fold change of MICs [13]: 1 fold
- Minimum Inhibitory Concentration, EKO-35 araC::mdtBC [13]: 20 µg/mL
- Fold change of MICs [14]: 16 fold
- Minimum Inhibitory Concentration, EKO-35 araC::mdtEF [14]: 320 µg/mL
- Fold change of MICs [15]: 1 fold
- Minimum inhibitory concentration (MIC), EKO-35 [15]: 20 µg/mL
- Minimum Inhibitory Concentration, EKO-35 [15]: 20 µg/mL
- susceptibility of EKO-35 to the compound [15]: susceptible
- Minimum inhibitory concentration (MIC), ΔtolC [16]: 10 µg/mL
- Minimum Inhibitory Concentration, ΔtolC [16]: 10 µg/mL
- Minimum inhibitory concentration (MIC), K-12 [17]: 320 µg/mL
- Minimum Inhibitory Concentration, K-12 [17]: 320 µg/mL
- Fold changes of MICs [18]: 1 fold
- Minimum inhibitory concentration (MIC), Pore EKO-35 [18]: 2.5 µg/mL
- Minimum inhibitory concentration, EKO-35-Pore [18]: 2.5 µg/mL

SMILES: O=c1oc(-c2ccccc2Cl)nn1-c1ccc(C(F)(F)F)cn1 [compound 5]
- Fold changes of MICs [1]: 16 fold
- Minimum inhibitory concentration, EKO-35 araC::acrEF Pore [1]: 320 µg/mL
- Fold changes of MICs [2]: 1 fold
- Minimum inhibitory concentration, EKO-35 araC::acrD Pore [2]: 10 µg/mL
- Fold changes of MICs [3]: 1 fold
- Minimum inhibitory concentration [3]: 20 µg/mL
- Fold changes of MICs [4]: 1 fold
- Minimum inhibitory concentration [4]: 10 µg/mL
- Fold changes of MICs [5]: 16 fold
- Minimum inhibitory concentration, EKO-35 araC::acrB Pore [5]: 320 µg/mL
- Fold changes of MICs [6]: 16 fold
- Minimum inhibitory concentration [6]: 320 µg/mL
- Minimum inhibitory concentration [7]: 10 µg/mL
- Fold changes of MICs [8]: 1 fold
- Minimum inhibitory concentration [8]: 10 µg/mL
- Fold changes of MICs [9]: 16 fold
- Minimum inhibitory concentration [9]: 320 µg/mL
- Minimum inhibitory concentration, EKO-35 araC::mdtEF Pore [10]: 320 µg/mL
- Minimum inhibitory concentration (MIC), Pore K-12 [11]: 320 µg/mL
- Minimum inhibitory concentration, K-12 (WT)-Pore [11]: 320 µg/mL
- Minimum inhibitory concentration (MIC), Pore ΔtolC [12]: 2.5 µg/mL
- Minimum inhibitory concentration, ΔtolC-Pore [12]: 2.5 µg/mL
- Fold change of MICs [13]: 1 fold
- Minimum Inhibitory Concentration, EKO-35 araC::mdtBC [13]: 10 µg/mL
- Fold change of MICs [14]: 16 fold
- Minimum Inhibitory Concentration, EKO-35 araC::mdtEF [14]: 320 µg/mL
- Fold change of MICs [15]: 1 fold
- Minimum inhibitory concentration (MIC), EKO-35 [15]: 20 µg/mL
- Minimum Inhibitory Concentration, EKO-35 [15]: 20 µg/mL
- susceptibility of EKO-35 to the compound [15]: susceptible
- Minimum inhibitory concentration (MIC), ΔtolC [16]: 10 µg/mL
- Minimum Inhibitory Concentration, ΔtolC [16]: 10 µg/mL
- Minimum inhibitory concentration (MIC), K-12 [17]: 320 µg/mL
- Minimum Inhibitory Concentration, K-12 [17]: 320 µg/mL
- Fold changes of MICs [18]: 1 fold
- Minimum inhibitory concentration (MIC), Pore EKO-35 [18]: 20 µg/mL
- Minimum inhibitory concentration, EKO-35-Pore [18]: 20 µg/mL

SMILES: O=C(Nc1ccccc1)Nc1ccc(Br)c(C(F)(F)F)c1 [compound 6]
- Fold changes of MICs [1]: 1 fold
- Minimum inhibitory concentration, EKO-35 araC::acrEF Pore [1]: 320 µg/mL
- Fold changes of MICs [2]: 1 fold
- Minimum inhibitory concentration, EKO-35 araC::acrD Pore [2]: 320 µg/mL
- Fold changes of MICs [3]: 1 fold
- Minimum inhibitory concentration [3]: 320 µg/mL
- Fold changes of MICs [4]: 1 fold
- Minimum inhibitory concentration [4]: 320 µg/mL
- Fold changes of MICs [5]: 1 fold
- Minimum inhibitory concentration, EKO-35 araC::acrB Pore [5]: 320 µg/mL
- Fold changes of MICs [6]: 1 fold
- Minimum inhibitory concentration [6]: 320 µg/mL
- Fold changes of MICs [7]: 1 fold
- Minimum inhibitory concentration [7]: 320 µg/mL
- Fold changes of MICs [8]: 1 fold
- Minimum inhibitory concentration [8]: 320 µg/mL
- Fold changes of MICs [9]: 1 fold
- Minimum inhibitory concentration [9]: 320 µg/mL
- Fold changes of MICs ([10]; EKO-35 araC::mdtEF Pore compared to EKO-35-Pore): 1 fold
- Minimum inhibitory concentration, EKO-35 araC::mdtEF Pore [10]: 320 µg/mL
- Minimum inhibitory concentration (MIC), Pore K-12 [11]: 320 µg/mL
- Minimum inhibitory concentration, K-12 (WT)-Pore [11]: 320 µg/mL
- Minimum inhibitory concentration (MIC), Pore ΔtolC [12]: 0.625 µg/mL
- Minimum inhibitory concentration, ΔtolC-Pore [12]: 0.625 µg/mL
- Fold change of MICs [13]: 1 fold
- Minimum Inhibitory Concentration, EKO-35 araC::mdtBC [13]: 320 µg/mL
- Fold change of MICs [14]: 1 fold
- Minimum Inhibitory Concentration, EKO-35 araC::mdtEF [14]: 320 µg/mL
- Fold change of MICs [15]: 1 fold
- Minimum inhibitory concentration (MIC), EKO-35 [15]: 320 µg/mL
- Minimum Inhibitory Concentration, EKO-35 [15]: 320 µg/mL
- Minimum inhibitory concentration (MIC), ΔtolC [16]: 0.625 µg/mL
- Minimum Inhibitory Concentration, ΔtolC [16]: 0.625 µg/mL
- Minimum inhibitory concentration (MIC), K-12 [17]: 320 µg/mL
- Minimum Inhibitory Concentration, K-12 [17]: 320 µg/mL
- Fold changes of MICs [18]: 1 fold
- Minimum inhibitory concentration (MIC), Pore EKO-35 [18]: 320 µg/mL
- Minimum inhibitory concentration, EKO-35-Pore [18]: 320 µg/mL
